The values below come from US12435068B2, “Anthelmintic compounds” (Elanco Animal Health GmBh, priority 2018, dated 2025).

In brackets after ≈: the same amount, converted by molar mass.

Usually EC50 stands for the concentration that produces a half-maximal response.

Assay [1] concerns Dirofilaria immitis microfilariae. The experiment in a line: In Vitro Assay 2: Dirofilaria immitis microfilariae (DIROIM L1) motility. To be noted: 72 h, read-out: EC50 ppm. In kind it is cell-based.
Assay [2] deals with C. elegans Slo-1a (Caenorhabditis elegans, UniProt Q95V25).
C. elegans Slo-1a, sequence (Q95V25 whole entry): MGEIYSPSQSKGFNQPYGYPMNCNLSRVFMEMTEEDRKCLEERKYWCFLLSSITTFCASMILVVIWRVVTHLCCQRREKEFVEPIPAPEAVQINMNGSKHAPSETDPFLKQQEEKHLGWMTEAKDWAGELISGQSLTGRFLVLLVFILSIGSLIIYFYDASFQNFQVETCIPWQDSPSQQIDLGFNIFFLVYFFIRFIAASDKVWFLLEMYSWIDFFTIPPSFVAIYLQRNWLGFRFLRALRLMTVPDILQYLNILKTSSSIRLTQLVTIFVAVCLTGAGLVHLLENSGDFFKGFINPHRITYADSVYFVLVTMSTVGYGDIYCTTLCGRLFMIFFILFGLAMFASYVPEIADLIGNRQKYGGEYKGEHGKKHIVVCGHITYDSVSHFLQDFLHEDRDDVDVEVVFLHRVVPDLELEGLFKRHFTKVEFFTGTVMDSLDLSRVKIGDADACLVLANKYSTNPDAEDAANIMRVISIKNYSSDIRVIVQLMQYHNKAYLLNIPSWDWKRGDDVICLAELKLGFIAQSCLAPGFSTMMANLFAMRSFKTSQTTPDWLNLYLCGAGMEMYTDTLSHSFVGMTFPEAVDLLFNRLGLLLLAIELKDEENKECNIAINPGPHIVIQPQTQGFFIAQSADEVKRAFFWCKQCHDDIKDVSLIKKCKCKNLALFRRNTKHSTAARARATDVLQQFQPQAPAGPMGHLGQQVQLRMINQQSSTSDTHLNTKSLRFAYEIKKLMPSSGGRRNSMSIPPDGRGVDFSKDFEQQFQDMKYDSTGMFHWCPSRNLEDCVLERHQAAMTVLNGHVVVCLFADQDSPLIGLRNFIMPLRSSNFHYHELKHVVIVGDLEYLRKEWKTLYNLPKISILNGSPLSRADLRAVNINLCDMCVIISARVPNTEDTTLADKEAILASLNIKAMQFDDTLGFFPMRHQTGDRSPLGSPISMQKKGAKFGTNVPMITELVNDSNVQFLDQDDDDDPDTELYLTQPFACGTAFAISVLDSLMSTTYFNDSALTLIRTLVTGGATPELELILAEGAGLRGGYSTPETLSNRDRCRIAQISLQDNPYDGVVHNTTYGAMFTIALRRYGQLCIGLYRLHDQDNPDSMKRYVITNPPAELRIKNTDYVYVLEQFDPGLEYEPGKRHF
Experimental: Cells were cultured at 37° C. and 5% CO2 in MEMalpha with Gutamax I (Invitrogen, Nr.: 32571), supplemented with 10% (v/v) heat inactivated fetal bovine serum (Invitrogen, Nr.: 10500), G418 (1 mg/ml, Invitrogen, Nr.: 10131). Cells were detached using Accutase (Sigma, Nr.: A6964).
Membrane Potential Measurements
Laboratory compound testing was performed on 384-well microtiter plates (MTPs, Greiner, Nr.: 781092). 8000 cells/well were plated onto 384-well MTPs and cultured for 20 to 24 hours at 37° C. and 5% CO2. After removal of the cell culture medium, the cells were washed once with tyrode (150 mM NaCl, 0.3 mM KCl, 2 mM CaCl2, 1 mM MgCl2, 0.8 mM NaH2PO4, 5 mM Glucose, 28 mM Hepes, pH 7.4) and then loaded with the voltage sensitive dye of the Membrane Potential Assay Kit diluted in tyrode for 1 h at room temperature.
After starting the measurement of fluorescence using a FLIPR Tetra (Molecular Devices, Exc. 510-545 nm, Emm. 565-625 nm), test compounds were added followed by the addition of KCl tyrode (final assay concentration: 70 mM KCl, 2 mM CaCl2, 1 mM MgCl2, 0.8 mM NaH2PO4, 5 mM Glucose, 28 mM Hepes, pH 7.4, including the voltage sensitive dye). The measurement was completed after 7 minutes.

As for `O=C(N[C@H]1CCOc2ccccc21)c1cc2cccc(-c3cccc(Cl)c3Cl)c2oc1=O` [Example Compound S8a-3, 8-(2,3-Dichlorophenyl)-N-[(4S)-3,4-dihydro-2H-chromen-4-yl]-2-oxo-2H-chromene-3-carboxamide], the EC50 in assay [1] was 0.25 µg/mL (≈ 0.536 µM); in assay [2], 50.1 nM.

As for `O=C(N[C@H]1CCc2ccccc21)c1ccc2nc(-c3cccc(Cl)c3Cl)cnc2c1` [Example Compound S9-5, 2-(2,3-Dichlorophenyl)-N-[(1S)-2,3-dihydro-1H-inden-1-yl]quinoxaline-6-carboxamide], the EC50 is 0.37 µg/mL (≈ 0.852 µM) in assay [1] and 31.6 nM in assay [2].

Turning to `Cc1nn(-c2c(F)cccc2F)c2ncc(C(=O)N[C@H]3CCOc4ccccc43)c(N(C)C)c12` [Example Compound S4-3, 1-(2,6-Difluorophenyl)-N-[(4S)-3,4-dihydro-2H-chromen-4-yl]-4-(dimethylamino)-3-methyl-1H-pyrazolo[3,4-b]pyridine-5-carboxamide], the EC50 in assay [1] was 1.82 µg/mL (≈ 3.93 µM); in assay [2], 158 nM.

For the compound `CN(C)c1c(C(=O)N[C@H]2CCOc3ccccc32)cnc2c1cnn2-c1cc(Cl)cc(Cl)c1` [Example Compound S4-4, 1-(3,5-Dichlorophenyl)-N-[(4S)-3,4-dihydro-2H-chromen-4-yl]-4-(dimethylamino)-1H-pyrazolo[3,4-b]pyridine-5-carboxamide], the concentration giving a half-maximal response (EC50) is more than 2 µg/mL in assay [1] and 501 nM in assay [2].

Regarding `CC(C)c1c(C(=O)N[C@H]2CCc3ccccc32)ccc2c1nnn2-c1ccccc1` [Example Compound S4-7, N-[(1S)-2,3-Dihydro-1H-inden-1-yl]-1-phenyl-4-(propan-2-yl)-1H-benzotriazole-5-carboxamide], the figures for the EC50 in assay [1] and in assay [2] were more than 2 µg/mL and 2000 nM, respectively.

Regarding `O=C(N[C@H]1CCOc2ccccc21)c1cnc2c(ccc(=O)n2-c2cc(Cl)cc(Cl)c2)c1` [Example Compound S7-1, 8-(3,5-Dichlorophenyl)-N-[(4S)-3,4-dihydro-2H-chromen-4-yl]-7-oxo-7,8-dihydro-1,8-naphthyridine-3-carboxamide], the EC50 in assay [1] was 1.95 µg/mL (≈ 4.18 µM); in assay [2] it was 200 nM.

Regarding `O=C(N[C@H]1CCOc2ccccc21)c1ccc2nc(-c3ccccc3Cl)cnc2c1` [Example Compound S9-2, 2-(2-Chlorophenyl)-N-[(4S)-3,4-dihydro-2H-chromen-4-yl]quinoxaline-6-carboxamide], the EC50 in assay [1] was 1.95 µg/mL (≈ 4.69 µM); in assay [2] it was 631 nM.

For `CN(C)c1c(C(=O)N[C@H]2CCOc3ccccc32)cnc2c1n(C)c(=O)n2-c1cc(Cl)cc(Cl)c1` [Example Compound S5-1, 3-(3,5-Dichlorophenyl)-N-[(4S)-3,4-dihydro-2H-chromen-4-yl]-7-(dimethylamino)-1-methyl-2-oxo-2,3-dihydro-1H-imidazo[4,5-b]pyridine-6-carboxamide], the EC50 in assay [1] is 0.38 µg/mL (≈ 0.742 µM); in assay [2], 100 nM.

For `Cn1c(C(=O)N[C@H]2CCOc3ccccc32)nc2c(-c3cccc(Cl)c3Cl)ccnc21` [Example Compound S2-1, 7-(2,3-Dichlorophenyl)-N-[(4S)-3,4-dihydro-2H-chromen-4-yl]-3-methyl-3H-imidazo[4,5-b]pyridine-2-carboxamide], the EC50 in assay [1] is 0.63 µg/mL (≈ 1.39 µM); in assay [2], 31.6 nM.

For `O=C(N[C@H]1CCc2ccccc21)c1ccc2nc(-c3cccc(C(F)(F)F)c3Cl)cnc2c1` [Example Compound S9-6, 2-[2-Chloro-3-(trifluoromethyl)phenyl]-N-[(1S)-2,3-dihydro-1H-inden-1-yl]quinoxaline-6-carboxamide], the EC50 in assay [1] is 0.44 µg/mL (≈ 0.94 µM); in assay [2] it was 31.6 nM.

With `O=C(N[C@H]1CCOc2ccccc21)c1ccc2c(-c3cccc(Cl)c3Cl)cccc2c1` [Example Compound S6-1, 5-(2,3-Dichlorophenyl)-N-[(4S)-3,4-dihydro-2H-chromen-4-yl]naphthalene-2-carboxamide], the values for the EC50 in assay [1] and in assay [2] were 0.63 µg/mL (≈ 1.41 µM) and 79.4 nM, respectively.

Turning to `Cc1nn(-c2cc(Cl)cc(Cl)c2)c2ncc(C(=O)N[C@H]3CCOc4ccccc43)c(N(C)C)c12` [Example Compound S4-2, 1-(3,5-Dichlorophenyl)-N-[(4S)-3,4-dihydro-2H-chromen-4-yl]-4-(dimethylamino)-3-methyl-1H-pyrazolo[3,4-b]pyridine-5-carboxamide], the figures for the EC50 in assay [1] and in assay [2] were more than 2 µg/mL and 2000 nM, respectively.

As to `CC(C)c1c(C(=O)N[C@H]2CCOc3ccccc32)sc2c(-c3cc(Cl)cc(Cl)c3)cccc12` [Example Compound S1-1, 7-(3,5-Dichlorophenyl)-N-[(4S)-3,4-dihydro-2H-chromen-4-yl]-3-isopropyl-1-benzothiophene-2-carboxamide], the EC50 in assay [1] is 0.08 µg/mL (≈ 0.161 µM); in assay [2], 2.51 nM.

Regarding `CC(C)c1c(C(=O)N[C@H]2CCc3ccccc32)ccc2c1nnn2-c1cccc(C(F)(F)F)c1` [Example Compound S4-9, N-[(1S)-2,3-Dihydro-1H-inden-1-yl]-4-(propan-2-yl)-1-[3-(trifluoromethyl)phenyl]-1H-benzotriazole-5-carboxamide], the EC50 in assay [1] is more than 2 µg/mL; in assay [2], 1580 nM.

Consider `CC(C)c1c(C(=O)N[C@H]2CCc3ccccc32)ccc2c1nnn2-c1ccc(Cl)cc1` [Example Compound S4-6, 1-(4-Chlorophenyl)-N-[(1S)-2,3-dihydro-1H-inden-1-yl]-4-(propan-2-yl)-1H-benzotriazole-5-carboxamide], for which the figures for the EC50 in assay [1] and in assay [2] were more than 2 µg/mL and 251 nM, respectively.

Consider `O=C(N[C@H]1CCOc2ccccc21)C1=Cc2cccc(-c3cc(Cl)cc(Cl)c3)c2OC1` [Example Compound S8a-4, 8-(3,5-Dichlorophenyl)-N-[(4S)-3,4-dihydro-2H-chromen-4-yl]-2H-chromene-3-carboxamide], for which the EC50 is more than 2 µg/mL in assay [1] and 20 nM in assay [2].

On to `CN(C)c1c(C(=O)N[C@H]2CCOc3ccccc32)sc2c(-c3cccc(Cl)c3Cl)nccc12` [Example Compound S1-13, 7-(2,3-Dichlorophenyl)-N-[(4S)-3,4-dihydro-2H-chromen-4-yl]-3-(dimethylamino)thieno[2,3-c]pyridine-2-carboxamide], for which the results for the EC50 in assay [1] and in assay [2] were 0.08 µg/mL (≈ 0.161 µM) and 15.8 nM, respectively.

Regarding `CC(C)n1c(C(=O)N[C@H]2CCOc3ccccc32)cc2c(-c3cccc(Cl)c3Cl)cccc21` [Example Compound S2-7, 4-(2,3-Dichlorophenyl)-N-[(4S)-3,4-dihydro-2H-chromen-4-yl]-1-(propan-2-yl)-1H-indole-2-carboxamide], the EC50 in assay [1] was 0.01 µg/mL (≈ 0.0209 µM); in assay [2], 20 nM.

In the case of `CN(C)c1c(C(=O)N[C@H]2CCOc3ccccc32)cnc2c1cnn2-c1c(F)cccc1F` [Example Compound S4-5, 1-(2,6-Difluorophenyl)-N-[(4S)-3,4-dihydro-2H-chromen-4-yl]-4-(dimethylamino)-1H-pyrazolo [3,4-b]pyridine-5-carboxamide], the EC50 in assay [1] was more than 2 µg/mL; in assay [2], 398 nM.

Take `CC(C)n1c(C(=O)N[C@H]2CCOc3ccccc32)cc2c(-c3cc(Cl)cc(Cl)c3Cl)cccc21` [Example Compound S2-4, N-[(4S)-3,4-Dihydro-2H-chromen-4-yl]-1-(propan-2-yl)-4-(2,3,5-trichlorophenyl)-1H-indole-2-carboxamide]: the EC50 in assay [1] is 0.02 µg/mL (≈ 0.0389 µM); in assay [2], 15.8 nM.

As for `O=C(N[C@H]1CCOc2ccccc21)c1sc2c(-c3cccc(Cl)c3Cl)cccc2c1Cl` [Example Compound S1-12, 3-Chloro-7-(2,3-dichlorophenyl)-N-[(4S)-3,4-dihydro-2H-chromen-4-yl]-1-benzothiophene-2-carboxamide], the figures for the EC50 in assay [1] and in assay [2] were 0.1 µg/mL (≈ 0.205 µM) and 158 nM, respectively.

Take `O=C(N[C@H]1CCc2ccccc21)c1ccc2nc(-c3ccccc3Cl)cnc2c1` [Example Compound S9-3, 2-(2-Chlorophenyl)-N-[(1S)-2,3-dihydro-1H-inden-1-yl]quinoxaline-6-carboxamide]: the EC50 in assay [1] was 0.61 µg/mL (≈ 1.53 µM); in assay [2], 100 nM.

As for `O=C(N[C@H]1CCOc2ccccc21)c1ccc2c(-c3cccc(Cl)c3Cl)nccc2c1` [Example Compound S6-2, 1-(2,3-Dichlorophenyl)-N-[(4S)-3,4-dihydro-2H-chromen-4-yl]isoquinoline-6-carboxamide], the EC50 was more than 2 µg/mL in assay [1] and 794 nM in assay [2].

As to `CC(C)n1c(C(=O)N[C@H]2CCOc3ccccc32)cc2c(-c3cc(Cl)cc(Cl)c3)cccc21` [Example Compound S2-5, 4-(3,5-Dichlorophenyl)-N-[(4S)-3,4-dihydro-2H-chromen-4-yl]-1-(propan-2-yl)-1H-indole-2-carboxamide], the results for the EC50 in assay [1] and in assay [2] were 0.06 µg/mL (≈ 0.125 µM) and 25.1 nM, respectively.

`Cn1c(C(=O)N[C@H]2CCc3ccccc32)nc2c(-c3cccc(Cl)c3Cl)ccnc21` [Example Compound S2-2, 7-(2,3-Dichlorophenyl)-N-[(1S)-2,3-dihydro-1H-inden-1-yl]-3-methyl-3H-imidazo[4,5-b]pyridine-2-carboxamide]: the EC50 in assay [1] is 0.37 µg/mL (≈ 0.846 µM); in assay [2] it was 501 nM.

For the compound `O=C(N[C@H]1CCOc2ccccc21)c1sc2c(-c3cccc(Cl)c3Cl)ccc(F)c2c1N1CCOCC1` [Example Compound S1-17, 7-(2,3-Dichlorophenyl)-N-[(4S)-3,4-dihydro-2H-chromen-4-yl]-4-fluoro-3-(morpholin-4-yl)-1-benzothiophene-2-carboxamide], the values for the EC50 in assay [1] and in assay [2] were 0.52 µg/mL (≈ 0.933 µM) and 50.1 nM, respectively.

With `O=C(N[C@H]1CCOc2ccccc21)c1c(N2CCOCC2)c2cccc(-c3cc(Cl)cc(Cl)c3)c2[nH]c1=O` [Example Compound S8a-6, 8-(3,5-Dichlorophenyl)-N-[(4S)-3,4-dihydro-2H-chromen-4-yl]-4-(morpholin-4-yl)-2-oxo-1,2-dihydroquinoline-3-carboxamide], the EC50 is 0.64 µg/mL (≈ 1.16 µM) in assay [1] and 39.8 nM in assay [2].

Consider `CC(C)c1c(C(=O)N[C@H]2CCc3ccccc32)ccc2c1nnn2-c1cccc(Cl)c1` [Example Compound S4-8, 1-(3-Chlorophenyl)-N-[(1S)-2,3-dihydro-1H-inden-1-yl]-4-(propan-2-yl)-1H-benzotriazole-5-carboxamide], for which the EC50 in assay [1] was more than 2 µg/mL; in assay [2], 10000 nM.
